The target in one data set is TNF (Homo sapiens, UniProt P01375). The data set is described as follows: TNF-neutralization bioassay: TNF-induced cell death of LM cells (MTT). The class given is cell-based. The settings on record: compound 50 μM, TNF 20 ng/ml, actinomycin D, LM cells, 24 hours. The procedure:
First, the addition of recombinant TNF to mouse fibroblast LM cells induces cell death, and thus, by using the same, the TNF-neutralization bioassay was constructed. In other words, LM cells were pretreated with TNF (20 ng/ml) and the compounds synthesized in the above examples at various concentrations (5×10^4 cells/well), and a sensitizer actinomycin D ([…]) was added, and cultured in a CO2 incubator for 24 hours, and then the MTT assay was carried out. At this time, 10 μl of MTT (5 mg/ml stock) was added, reacted for 4 hours, and then dissolved in DMSO to measure the absorbance at 570 nm. First, the TNF cell death inhibition/neutralization action of TNF-target expected compounds at single concentration (50 or 10 μM) was measured. Second, IC50 values were determined by treating with the compounds having an excellent effect at different concentrations. The % inhibition of TNF was calculated using the following formula: % inhibition of TNF=(OD value of a group treated with TNF and compound−OD value of TNF treated group/(OD value of TNF untreated group−OD value of TNF treated group)×100.
IC50 values were statistically analyzed using Prism 6 (GraphPad) (IC50: 50% inhibitory concentration, CC50: 50% cytotoxic concentration).

TNF, sequence (P01375 77-233 limits assumed): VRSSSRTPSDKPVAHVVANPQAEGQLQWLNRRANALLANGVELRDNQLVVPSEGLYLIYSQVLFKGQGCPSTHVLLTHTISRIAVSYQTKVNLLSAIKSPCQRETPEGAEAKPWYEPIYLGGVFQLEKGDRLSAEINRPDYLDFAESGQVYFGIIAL

As usually defined, the inhibition is the relative decrease from the control value, in per cent. Read a high inhibition as strong suppression. Usually melting point stands for the temperature of the solid-liquid transition. For the compound `Cc1ccc2c(=O)c(C(=O)O)c(-c3cc(F)ccc3F)oc2c1` [Example 59, 2-(2,5-difluorophenyl)-3-carboxy-7-methyl-(4H)-4-benzopyranone], the melting point is 156 to 158 °C. The compound further yielded an inhibition at 50 µM against TNF of 32.3%.

Regarding `Cc1ccc2oc(-c3cccs3)c(C(=O)O)c(=O)c2c1` [Example 33, 2-(2-thiophenyl)-3-carboxy-6-methyl-(4H)-4-benzopyranone], the melting point lay in the range of 153 to 155 °C. The inhibition at 50 µM at TNF worked out at 20.7%.

The compound `Cc1ccc2oc(-c3cccc(F)c3)c(C(=O)O)c(=O)c2c1` [Example 43, 2-(3-fluorophenyl)-3-carboxy-6-methyl-(4H)-4-benzopyranone] showed a melting point of 214 to 215 °C. Moreover, on TNF, testing at 50 µM gave an inhibition of 19.4%.

Turning to `COc1ccc(-c2oc3c(C)cccc3c(=O)c2C(=O)O)cc1OC` [Example 37, 2-(3,4-dimethoxyphenyl)-3-carboxy-8-methyl-(4H)-4-benzopyranone], the melting point was in the range of 210 to 212 °C. Also, at TNF, testing at 50 µM gave an inhibition of 33.4%.

With `O=C(O)c1c(-c2cccs2)oc2ccccc2c1=O` [Example 15, 2-(2-thiophenyl)-3-carboxy-(4H)-4-benzopyranone], the melting point lay within 175 to 176 °C. For the same compound, the inhibition at 50 µM against TNF was determined as 47.5%.

The compound `Cc1ccc2c(=O)c(C(=O)O)c(-c3cccs3)oc2c1` [Example 32, 2-(2-thiophenyl)-3-carboxy-7-methyl-(4H)-4-benzopyranone] yielded a melting point of 202 to 203 °C. This compound had an inhibition at 50 µM at TNF of 23.6%.

For the compound `COc1ccc2oc(-c3cccc(C)c3)c(C(=O)O)c(=O)c2c1` [Example 7, 2-(3-methylphenyl)-3-carboxy-6-methoxy-(4H)-4-benzopyranone], the melting point lay within 198 to 199 °C. Moreover, the inhibition at 50 µM on TNF worked out at 47%.

The compound `Cc1cccc2c(=O)c(C(=O)O)c(-c3cccc(F)c3)oc12` [Example 41, 2-(3-fluorophenyl)-3-carboxy-8-methyl-(4H)-4-benzopyranone] had a melting point of 227 to 229 °C. This compound also yielded an inhibition at 50 µM at TNF of 37.2%.

Consider `COc1ccc2c(=O)c(C(=O)O)c(-c3cccs3)oc2c1` [Example 13, 2-(2-thiophenyl)-3-carboxy-7-methoxy-(4H)-4-benzopyranone], for which the melting point lay within 205 to 207 °C. For the same compound, the inhibition at 50 µM on TNF is 55.9%.

`Cc1cccc(-c2oc3ccccc3c(=O)c2C(=O)O)c1` [Example 19, 2-(3-methylphenyl)-3-carboxy-(4H)-4-benzopyranone] registered a melting point of 162 to 164 °C. The compound further came in with an inhibition at 50 µM at TNF of 48.3%.

The compound `Cc1cccc2c(=O)c(C(=O)O)c(-c3ccco3)oc12` [Example 20, 2-(2-furanyl)-3-carboxy-8-methyl-(4H)-4-benzopyranone] yielded a melting point of 227 to 228 °C. This compound also registered an inhibition at 50 µM against TNF of 59%.

`COc1ccc2c(=O)c(C(=O)O)c(-c3ccc(OC)c(OC)c3)oc2c1` [Example 9, 2-(3,4-dimethoxyphenyl)-3-carboxy-7-methoxy-(4H)-4-benzopyranone] returned a melting point of 208 to 210 °C. This compound returned an inhibition at 50 µM on TNF of 49.2%.

Regarding `COc1cccc2c(=O)c(C(=O)O)c(-c3ccco3)oc12` [Example 2, 2-(2-furanyl)-3-carboxy-8-methoxy-(4H)-4-benzopyranone], the melting point is 195 to 197 °C. The inhibition at 50 µM at TNF worked out at 46.6%.

`COc1ccc2c(=O)c(C(=O)O)c(-c3cccc(F)c3)oc2c1` [Example 1, 2-(3-fluorophenyl)-3-carboxy-7-methoxy-(4H)-4-benzopyranone] came in with a melting point of 214 to 215 °C. At TNF, this compound registered an inhibition at 50 µM of 39.1%.

In turn, `Cc1cccc(-c2oc3cc(C)ccc3c(=O)c2C(=O)O)c1` [Example 26, 2-(3-methylphenyl)-3-carboxy-7-methyl-(4H)-4-benzopyranone] registered a melting point of 152 to 155 °C. The same compound showed an inhibition at 50 µM at TNF of 45.1%.

`Cc1ccc2oc(-c3ccc(Cl)cc3)c(C(=O)O)c(=O)c2c1` [Example 70, 2-(4-chlorophenyl)-3-carboxy-6-methyl-(4H)-4-benzopyranone] showed a melting point of 212 to 227 °C. At TNF, the inhibition at 50 µM turned out to be 28.9%.

With `Cc1ccc2oc(-c3cc(F)ccc3F)c(C(=O)O)c(=O)c2c1` [Example 60, 2-(2,5-difluorophenyl)-3-carboxy-6-methyl-(4H)-4-benzopyranone], the melting point was not below 120 °C. At TNF, this compound returned an inhibition at 50 µM of 28.1%.

For `Cc1cccc(-c2oc3ccc(C)cc3c(=O)c2C(=O)O)c1` [Example 27, 2-(3-methylphenyl)-3-carboxy-6-methyl-(4H)-4-benzopyranone], the melting point was in the range of 192 to 195 °C. Moreover, on TNF, the inhibition at 50 µM was 65.2%.

As to `COc1ccc2c(=O)c(C(=O)O)c(-c3cccc(C)c3)oc2c1` [Example 6, 2-(3-methylphenyl)-3-carboxy-7-methoxy-(4H)-4-benzopyranone], the melting point was in the range of 183 to 184 °C. For the same compound, 50 µM produced 46% inhibition against TNF.

As to `O=C(O)c1c(-c2cccs2)oc2cc(Cl)ccc2c1=O` [Example 34, 2-(2-thiophenyl)-3-carboxy-7-chloro-(4H)-4-benzopyranone], the melting point was 232 to 233 °C. At TNF, this compound gave an inhibition at 50 µM of 21.7%.

In turn, `Cc1cccc2c(=O)c(C(=O)O)c(-c3cc(F)cc(F)c3)oc12` [Example 47, 2-(3,5-difluorophenyl)-3-carboxy-8-methyl-(4H)-4-benzopyranone] registered a melting point of 243 to 244 °C. On TNF, the inhibition at 50 µM is 21.4%.

In turn, `COc1ccc2oc(-c3ccco3)c(C(=O)O)c(=O)c2c1` [Example 4, 2-(2-furanyl)-3-carboxy-6-methoxy-(4H)-4-benzopyranone] registered a melting point of 205 to 207 °C. Further, at TNF, the inhibition at 50 µM was 24.6%.

Compound `Cc1ccc2c(=O)c(C(=O)O)c(-c3ccc(Cl)cc3)oc2c1` [Example 69, 2-(4-chlorophenyl)-3-carboxy-7-methyl-(4H)-4-benzopyranone] returned a melting point of 220 to 222 °C. Testing at 50 µM against TNF gave an inhibition of 14.6%.

The compound `O=C(O)c1c(-c2cccs2)oc2ccc(Cl)cc2c1=O` [Example 35, 2-(2-thiophenyl)-3-carboxy-6-chloro-(4H)-4-benzopyranone] displayed a melting point of 202 to 204 °C. The inhibition at 50 µM against TNF is 28.1%.

On to `O=C(O)c1c(-c2ccco2)oc2ccccc2c1=O` [Example 18, 2-(2-furanyl)-3-carboxy-(4H)-4-benzopyranone], for which the melting point lay in the range of 202 to 205 °C. On TNF, the inhibition at 50 µM was found to be 48.6%.

With `Cc1cccc2c(=O)c(C(=O)O)c(-c3cc(F)ccc3F)oc12` [Example 58, 2-(2,5-difluorophenyl)-3-carboxy-8-methyl-(4H)-4-benzopyranone], the melting point was in the range of 170 to 172 °C. On TNF, the inhibition at 50 µM is 33.8%.

In the case of `COc1ccc(-c2oc3cc(C)ccc3c(=O)c2C(=O)O)cc1OC` [Example 38, 2-(3,4-dimethoxyphenyl)-3-carboxy-7-methyl-(4H)-4-benzopyranone], the melting point lay in the range of 200 to 201 °C. Also, the inhibition at 50 µM at TNF came out at 30.9%.

`COc1ccc2c(=O)c(C(=O)O)c(-c3ccco3)oc2c1` [Example 3, 2-(2-furanyl)-3-carboxy-7-methoxy-(4H)-4-benzopyranone]: the melting point fell in the range of 217 to 219 °C. On TNF, this compound had an inhibition at 50 µM of 26.3%.

For the origin of these results see patent publication US11504349B2, “Composition for preventing or treating TNF-related diseases, containing novel derivative as active ingredient, and method for inhibiting TNF activity by using same” (ILAB, priority 2017, dated 2022).
